Legend:
Format in all cases: in vivo
Nightshade = test: Test C preemergence
Sunflower = test: Test C preemergence
[1] = tested on: Surinam grass (Brachiaria decumbens); test: Test C preemergence
Procedure, shortened: (§1)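 Visual 0–100 rating vs controls (0 = no effect, 100 = complete control) at 12–14 d, greenhouse. Compounds in non-phytotoxic solvent + surfactant; pre: sprayed after seeding; post: 1–4-leaf plants, 2–18 cm.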

[2] = tested on: bermudagrass (Cynodon dactylon); test: Test C preemergence
Procedure, shortened: as §1

[3] = tested on: cocklebur (Xanthium strumarium); test: Test C preemergence
Procedure, shortened: as §1

[4] = tested on: common ragweed (Ambrosia elatior); test: Test C preemergence
Procedure, shortened: as §1

corn (Zea mays) = test: Test C preemergence
Procedure, shortened: as §1

[5] = tested on: crabgrass (Digitaria sanguinalis); test: Test C preemergence
Procedure, shortened: as §1

[6] = tested on: giant foxtail (Setaria faberii); test: Test C preemergence
Procedure, shortened: as §1

[7] = tested on: goosegrass (Eleusine indica); test: Test C preemergence
Procedure, shortened: as §1

[8] = tested on: johnsongrass (Sorghum halepense); test: Test C preemergence
Procedure, shortened: as §1

kochia (Kochia scoparia) = test: Test C preemergence
Procedure, shortened: as §1

[9] = tested on: lambsquarters (Chenopodium album); test: Test C preemergence
Procedure, shortened: as §1

[10] = tested on: morningglory (Ipomoea hederacea); test: Test C preemergence
Procedure, shortened: as §1

[11] = tested on: pigweed (Amaranthus retroflexus); test: Test C preemergence
Procedure, shortened: as §1

soybean (Glycine max) = test: Test C preemergence
Procedure, shortened: as §1

[12] = tested on: velvetleaf (Abutilon theophrasti); test: Test C preemergence
Procedure, shortened: as §1

[13] = tested on: woolly cupgrass (Eriochloa villosa); test: Test C preemergence
Procedure, shortened: as §1

[14] = tested on: yellow nutsedge (Cyperus esculentus); test: Test C preemergence
Procedure, shortened: as §1

[15] = tested on: barnyardgrass (Echinochloa crus-galli); test: Test C flooded paddy test; details: for Barnyardgrass plant response rating: Flooded Paddy, scale 0 to 100, 0 no effect, 100 complete control; for Plant response rating, Barnyardgrass: flooded paddy test, scale 0 to 100 (0 no effect, 100 complete control)
Procedure, shortened: (§2)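 Visual injury score, 0 (no effect) to 100 (complete control), relative to controls. Paddy plants treated at 2-leaf stage; greenhouse hold 12–14 d before rating.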

[16] = tested on: duck salad (Heteranthera limosa); test: Test C flooded paddy test; details: for Ducksalad plant response rating: Flooded Paddy, scale 0 to 100, 0 no effect, 100 complete control; for Plant response rating, Ducksalad: flooded paddy test, scale 0 to 100 (0 no effect, 100 complete control)
Procedure, shortened: as §2

[17] = tested on: smallflower flatsedge (Cyperus difformis); test: Test C flooded paddy test; details: for Flatsedge plant response rating: Flooded Paddy, scale 0 to 100, 0 no effect, 100 complete control; for Plant response rating, Flatsedge: flooded paddy test, scale 0 to 100 (0 no effect, 100 complete control)
Procedure, shortened: as §2

[18] = Rate 62 g/ha, scale 0 to 100, 0 no effect, 100 complete control
[19] = Preemergence, Rate 500 g/ha, scale 0 to 100
[20] = preemergence, Rate 250 g/ha, visual evaluation after 12 to 14 days
[21] = preemergence, Rate 125 g/ha, scale 0 to 100, 0 no effect, 100 complete control

CC(C)c1ccn(C2SCN(c3cccc(OC(F)F)c3)C2=O)n1 (stereo not drawn) [Compound 44]
Plant response rating, Nightshade (Nightshade; [18]): 0 | Plant response rating, Nightshade (Nightshade; Rate 125 g/ha, scale 0 to 100, 0 no effect, 100 complete control): 0 | Plant response rating, Nightshade (Nightshade; Rate 500 g/ha, scale 0 to 100): 30 | Plant response rating, Sunflower (Sunflower; [18]): 0 | Plant response rating, Sunflower (Sunflower; Rate 500 g/ha, scale 0 to 100): 30 | Plant response rating, Surinam grass [1, 19]: 90 | Plant response rating, Surinam grass [1, 18]: 0 | Plant response rating (0 to 100), Surinam grass [1, 20]: 80 | Plant response rating, Surinam grass [1, 21]: 80 | Plant response rating, Bermudagrass [2, 19]: 100 | Plant response rating, Bermudagrass [2, 18]: 90 | Plant response rating (0 to 100 where 0 is no effect and 100 is complete control), Bermudagrass [2, 20]: 100 | Plant response rating, Bermudagrass [2, 21]: 100 | Plant response rating, Cocklebur [3, 19]: 100 | Plant response rating (0 to 100), Cocklebur [3, 20]: 30 | Plant response rating, Cocklebur [3, 21]: 0 | Plant response rating, Ragweed, Common [4, 19]: 50 | Plant response rating, Ragweed, Common [4, 18]: 0 | Plant response rating (0 to 100), Ragweed, Common [4, 20]: 50 | Plant response rating, Ragweed, Common [4, 21]: 0 | Plant response rating, Corn (corn (Zea mays); [19]): 70 | Plant response rating, Corn (corn (Zea mays); [18]): 0 | Plant response rating (0 to 100), Corn (corn (Zea mays); [20]): 0 | Plant response rating, Corn (corn (Zea mays); [21]): 0 | Plant response rating, Crabgrass [5, 19]: 100 | Plant response rating, Crabgrass [5, 18]: 100 | Plant response rating (0 to 100), Crabgrass [5, 20]: 100 | Plant response rating, Crabgrass [5, 21]: 100 | Plant response rating, Foxtail, Giant [6, 19]: 90 | Plant response rating, Foxtail, Giant [6, 18]: 0 | Plant response rating (0 to 100), Foxtail, Giant [6, 20]: 100 | Plant response rating, Foxtail, Giant [6, 21]: 100 | Plant response rating, Goosegrass [7, 19]: 100 | Plant response rating, Goosegrass [7, 18]: 90 | Plant response rating (0 to 100), Goosegrass [7, 20]: 100 | Plant response rating, Goosegrass [7, 21]: 100 | Plant response rating, Johnsongrass [8, 19]: 100 | Plant response rating, Johnsongrass [8, 18]: 0 | Plant response rating (0 to 100), Johnsongrass [8, 20]: 90 | Plant response rating, Johnsongrass [8, 21]: 60 | Plant response rating, Kochia (kochia (Kochia scoparia); [19]): 100 | Plant response rating, Kochia (kochia (Kochia scoparia); [18]): 70 | Plant response rating (0 to 100), Kochia (kochia (Kochia scoparia); [20]): 100 | Plant response rating, Kochia (kochia (Kochia scoparia); [21]): 100 | Plant response rating, Lambsquarters [9, 19]: 100 | Plant response rating, Lambsquarters [9, 18]: 100 | Plant response rating (0 to 100), Lambsquarters [9, 20]: 100 | Plant response rating, Lambsquarters [9, 21]: 100 | Plant response rating, Morningglory [10, 19]: 40 | Plant response rating, Morningglory [10, 18]: 0 | Plant response rating (0 to 100), Morningglory [10, 20]: 20 | Plant response rating, Morningglory [10, 21]: 0 | Plant response rating, Pigweed [11, 19]: 100 | Plant response rating, Pigweed [11, 18]: 0 | Plant response rating (0 to 100), Pigweed [11, 20]: 20 | Plant response rating, Pigweed [11, 21]: 0 | Plant response rating, Soybean (soybean (Glycine max); [19]): 30 | Plant response rating, Soybean (soybean (Glycine max); [18]): 0 | Plant response rating (0 to 100), Soybean (soybean (Glycine max); [20]): 30 | Plant response rating, Soybean (soybean (Glycine max); [21]): 0 | Plant response rating, Velvetleaf [12, 19]: 60 | Plant response rating, Velvetleaf [12, 18]: 0 | Plant response rating (0 to 100), Velvetleaf [12, 20]: 20 | Plant response rating, Velvetleaf [12, 21]: 0 | Plant response rating, Cupgrass, Woolly [13, 19]: 100 | Plant response rating, Cupgrass, Woolly [13, 18]: 30 | Plant response rating (0 to 100), Cupgrass, Woolly [13, 20]: 100 | Plant response rating, Cupgrass, Woolly [13, 21]: 90 | Plant response rating, Nutsedge [14, 19]: 100 | Plant response rating, Nutsedge [14, 18]: 0 | Plant response rating (0 to 100), Nutsedge [14, 20]: 60 | Plant response rating, Nutsedge [14, 21]: 30 | Barnyardgrass plant response rating ([15]; Rate 250 g/ha): 100 | Barnyardgrass plant response rating ([15]; Rate 500 g/ha): 100 | Plant response rating, Barnyardgrass ([15]; Rate 62 g/ha): 90 | Plant response rating, Barnyardgrass ([15]; Rate 125 g/ha): 100 | Ducksalad plant response rating ([16]; Rate 250 g/ha): 100 | Ducksalad plant response rating ([16]; Rate 500 g/ha): 100 | Plant response rating, Ducksalad ([16]; Rate 62 g/ha): 50 | Plant response rating, Ducksalad ([16]; Rate 125 g/ha): 90 | Flatsedge plant response rating ([17]; Rate 250 g/ha): 100 | Flatsedge plant response rating ([17]; Rate 500 g/ha): 100 | Plant response rating, Flatsedge ([17]; Rate 62 g/ha): 90 | Plant response rating, Flatsedge ([17]; Rate 125 g/ha): 100
